Results reported in the NIST ThermoML archive (doi:10.1007/s10765-010-0766-0).
Several values for one entry are separate records, joined by “and”; a condition that tells them apart may be missing. Identical values can stand only once.

Assay: molar heat capacity at constant volume
Conditions: Liquid, Vacuum adiabatic calorimetry

FC(F)C(F)(F)OCC(F)(F)F [2,2,2-trifluoroethyl 1,1,2,2-tetrafluoroethyl ether]
Conditions | molar heat capacity at constant volume
279.15 K, 5663 kPa | 189.85 J/K/mol
280.15 K, 6663 kPa | 187.85 J/K/mol
280.15 K, 6673 kPa | 191.45 J/K/mol
281.15 K, 7673 kPa | 194.25 J/K/mol
281.15 K, 7685 kPa | 189.25 J/K/mol
282.15 K, 8685 kPa | 190.65 J/K/mol
282.15 K, 8696 kPa | 193.65 J/K/mol
283.15 K, 9695 kPa | 191.85 J/K/mol
283.15 K, 9705 kPa | 192.45 J/K/mol
284.15 K, 10704 kPa | 193.45 J/K/mol
284.15 K, 10712 kPa | 191.85 J/K/mol
285.15 K, 11710 kPa | 191.65 J/K/mol
285.15 K, 11717 kPa | 193.65 J/K/mol
286.15 K, 12714 kPa | 193.85 J/K/mol
286.15 K, 12720 kPa | 191.65 J/K/mol
287.15 K, 13718 kPa | 193.05 J/K/mol
287.15 K, 13722 kPa | 194.65 J/K/mol
288.15 K, 14719 kPa | 192.25 J/K/mol
288.15 K, 14722 kPa | 193.05 J/K/mol
289.15 K, 15719 kPa | 193.65 J/K/mol
289.15 K, 15720 kPa | 193.25 J/K/mol
290.15 K, 16716 kPa | 193.45 J/K/mol
290.15 K, 16717 kPa | 195.85 J/K/mol
291.15 K, 17711 kPa | 193.65 J/K/mol
291.15 K, 17712 kPa | 194.45 J/K/mol
292.15 K, 18703 kPa | 193.05 J/K/mol
292.15 K, 18704 kPa | 193.05 J/K/mol
293.15 K, 19694 kPa | 193.45 J/K/mol and 195.45 J/K/mol
294.15 K, 20683 kPa | 194.85 J/K/mol and 193.25 J/K/mol
295.15 K, 21669 kPa | 192.45 J/K/mol and 193.65 J/K/mol
296.15 K, 22653 kPa | 195.05 J/K/mol
296.15 K, 22654 kPa | 195.85 J/K/mol
297.15 K, 23636 kPa | 193.85 J/K/mol and 194.45 J/K/mol
298.15 K, 24616 kPa | 193.85 J/K/mol
298.15 K, 24617 kPa | 193.85 J/K/mol
299.15 K, 25595 kPa | 195.45 J/K/mol
299.15 K, 25596 kPa | 196.45 J/K/mol
300.15 K, 26572 kPa | 194.05 J/K/mol
300.15 K, 26573 kPa | 193.85 J/K/mol
301.15 K, 6294 kPa | 197.05 J/K/mol
301.15 K, 27548 kPa | 196.25 J/K/mol and 195.85 J/K/mol
302.15 K, 7147 kPa | 196.45 J/K/mol
302.15 K, 28521 kPa | 195.05 J/K/mol
302.15 K, 28522 kPa | 193.65 J/K/mol
303.15 K, 8010 kPa | 194.05 J/K/mol
303.15 K, 8015 kPa | 197.65 J/K/mol
303.15 K, 29493 kPa | 196.65 J/K/mol and 196.85 J/K/mol
304.15 K, 8873 kPa | 195.25 J/K/mol
304.15 K, 8874 kPa | 194.45 J/K/mol
305.15 K, 9734 kPa | 197.65 J/K/mol and 197.85 J/K/mol
306.15 K, 10592 kPa | 195.45 J/K/mol
306.15 K, 10594 kPa | 196.05 J/K/mol
307.15 K, 11449 kPa | 197.25 J/K/mol
307.15 K, 11452 kPa | 197.05 J/K/mol
308.15 K, 12303 kPa | 195.25 J/K/mol
308.15 K, 12308 kPa | 196.25 J/K/mol
309.15 K, 13157 kPa | 197.45 J/K/mol
309.15 K, 13163 kPa | 197.45 J/K/mol
310.15 K, 14009 kPa | 195.65 J/K/mol
310.15 K, 14016 kPa | 196.45 J/K/mol
311.15 K, 14859 kPa | 196.45 J/K/mol
311.15 K, 14867 kPa | 197.05 J/K/mol
312.15 K, 15708 kPa | 198.05 J/K/mol
312.15 K, 15718 kPa | 197.25 J/K/mol
313.15 K, 16557 kPa | 196.85 J/K/mol
313.15 K, 16566 kPa | 197.05 J/K/mol
314.15 K, 17405 kPa | 198.05 J/K/mol
314.15 K, 17414 kPa | 196.85 J/K/mol
315.15 K, 18252 kPa | 199.05 J/K/mol
315.15 K, 18260 kPa | 196.45 J/K/mol
316.15 K, 19097 kPa | 197.45 J/K/mol
316.15 K, 19105 kPa | 197.85 J/K/mol
317.15 K, 19942 kPa | 200.86 J/K/mol
317.15 K, 19949 kPa | 198.45 J/K/mol
318.15 K, 20785 kPa | 198.25 J/K/mol
318.15 K, 20791 kPa | 198.65 J/K/mol
319.15 K, 21626 kPa | 197.85 J/K/mol
319.15 K, 21632 kPa | 197.65 J/K/mol
320.15 K, 22467 kPa | 200.45 J/K/mol
320.15 K, 22471 kPa | 199.25 J/K/mol
321.15 K, 23306 kPa | 199.25 J/K/mol
321.15 K, 23311 kPa | 198.45 J/K/mol
322.15 K, 24144 kPa | 199.05 J/K/mol
322.15 K, 24148 kPa | 198.05 J/K/mol
323.15 K, 24980 kPa | 199.65 J/K/mol
323.15 K, 24983 kPa | 199.05 J/K/mol
324.15 K, 25816 kPa | 200.66 J/K/mol
324.15 K, 25819 kPa | 201.06 J/K/mol
325.15 K, 26650 kPa | 199.05 J/K/mol
325.15 K, 26653 kPa | 197.05 J/K/mol
326.15 K, 27482 kPa | 200.86 J/K/mol
326.15 K, 27484 kPa | 199.85 J/K/mol
327.15 K, 28313 kPa | 199.65 J/K/mol
327.15 K, 28315 kPa | 198.65 J/K/mol
328.15 K, 29144 kPa | 200.66 J/K/mol
328.15 K, 29145 kPa | 201.86 J/K/mol
329.15 K, 7678 kPa | 198.25 J/K/mol
329.15 K, 7689 kPa | 201.66 J/K/mol
329.15 K, 29973 kPa | 201.66 J/K/mol
329.15 K, 29975 kPa | 200.25 J/K/mol
330.15 K, 8385 kPa | 206.66 J/K/mol
330.15 K, 8394 kPa | 203.66 J/K/mol
331.15 K, 9091 kPa | 203.86 J/K/mol
331.15 K, 9099 kPa | 203.26 J/K/mol
332.15 K, 9796 kPa | 205.26 J/K/mol
332.15 K, 9803 kPa | 203.46 J/K/mol
333.15 K, 10500 kPa | 204.86 J/K/mol
333.15 K, 10506 kPa | 204.26 J/K/mol
334.15 K, 11204 kPa | 205.86 J/K/mol
334.15 K, 11209 kPa | 204.66 J/K/mol
335.15 K, 11908 kPa | 206.26 J/K/mol
335.15 K, 11912 kPa | 205.06 J/K/mol
336.15 K, 12610 kPa | 205.26 J/K/mol
336.15 K, 12614 kPa | 204.26 J/K/mol
337.15 K, 13313 kPa | 208.46 J/K/mol
337.15 K, 13315 kPa | 206.66 J/K/mol
338.15 K, 14014 kPa | 204.26 J/K/mol
338.15 K, 14016 kPa | 204.66 J/K/mol
339.15 K, 14714 kPa | 208.46 J/K/mol
339.15 K, 14716 kPa | 206.06 J/K/mol
340.15 K, 15413 kPa | 207.06 J/K/mol
340.15 K, 15416 kPa | 206.86 J/K/mol
341.15 K, 16111 kPa | 207.06 J/K/mol
341.15 K, 16114 kPa | 208.06 J/K/mol
